From the supplement of paper PMC10627819

Key:
Assay in all cases: Bliss interaction score (quartile over a dose matrix) (fitness difference); higher = more antagonism (negative = synergy)
[1] = test system: S. aureus Newman
Summary of the method: (§1)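 Quartiles of the Bliss score were taken over technical, biological and donor/recipient replicates. That score is observed fitness minus the product of the single-drug fitness values, which were inferred from combination data. Fitness itself is OD595 at entry into stationary phase divided by the plate's robust no-drug mean, with a cap at 1.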

[2] = test system: S. pneumoniae D39V
Summary of the method: as §1

[3] = test system: S. aureus DSM 20231
Summary of the method: as §1

[4] = test system: B. subtilis 168
Summary of the method: as §1
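Further: first quartile when negative (synergy) and third quartile when positive (antagonism).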

| Structure (SMILES) | Bliss interaction score [1] | Bliss interaction score [2] | Bliss interaction score [3] | Bliss interaction score [4] | Bliss interaction score ([1]; main component drawn) | Bliss interaction score ([2]; main component drawn) | Bliss interaction score ([3]; main component drawn) | Bliss interaction score ([4]; main component drawn) |
| --- | --- | --- | --- | --- | --- | --- | --- | --- |
| CO[C@@H]1[C@@H](OC(N)=O)[C@@H](O)[C@H](Oc2ccc3c(O)c(NC(=O)c4ccc(O)c(CC=C(C)C)c4)c(=O)oc3c2C)OC1(C)C [Novobiocin] + CO[C@H]1/C=C/O[C@@]2(C)Oc3c(C)c(O)c4c(O)c(c(/C=N/N5CCN(C)CC5)c(O)c4c3C2=O)NC(=O)/C(C)=C\C=C\[C@H](C)[C@H](O)[C@@H](C)[C@@H](O)[C@@H](C)[C@H](OC(C)=O)[C@@H]1C [Rifampicin] | 0.0819 | 0.159 | 0.0573 | 0.0681 |  |  |  |  |
| CO[C@@H]1[C@@H](OC(N)=O)[C@@H](O)[C@H](Oc2ccc3c(O)c(NC(=O)c4ccc(O)c(CC=C(C)C)c4)c(=O)oc3c2C)OC1(C)C [Novobiocin] + Cn1nnc(-c2ccc(-c3ccc(N4C[C@H](CO)OC4=O)cc3F)cn2)n1 [Tedizolid] | -0.0571 | -0.131 | -0.0789 | 0.0533 |  |  |  |  |
| CO[C@@H]1[C@@H](OC(N)=O)[C@@H](O)[C@H](Oc2ccc3c(O)c(NC(=O)c4ccc(O)c(CC=C(C)C)c4)c(=O)oc3c2C)OC1(C)C [Novobiocin] + Oc1cc(Cl)ccc1Oc1ccc(Cl)cc1Cl [Triclosan] | -0.0304 | 0.177 | 0.0686 | 0.0532 |  |  |  |  |
| CN[C@H](CC(C)C)C(=O)N[C@H]1C(=O)N[C@@H](CC(N)=O)C(=O)N[C@H]2C(=O)N[C@H]3C(=O)N[C@H](C(=O)N[C@H](C(=O)O)c4cc(O)cc(O)c4-c4cc3ccc4O)[C@H](O[C@H]3C[C@](C)(N)[C@@H](O)[C@H](C)O3)c3ccc(c(Cl)c3)Oc3cc2cc(c3O[C@@H]2O[C@H](CO)[C@@H](O)[C@H](O)[C@H]2O[C@H]2C[C@](C)(NCc3ccc(-c4ccc(Cl)cc4)cc3)[C@@H](O)[C@H](C)O2)Oc2ccc(cc2Cl)[C@H]1O [Oritavancin] + C/C(=C\C(=O)OCCCCCCCCC(=O)O)C[C@@H]1OC[C@H](C[C@@H]2O[C@H]2[C@@H](C)[C@H](C)O)[C@@H](O)[C@H]1O [Pseudomonic acid] | 0.0197 | 0.0558 | 0.0201 | 0.0341 |  |  |  |  |
| CN[C@H](CC(C)C)C(=O)N[C@H]1C(=O)N[C@@H](CC(N)=O)C(=O)N[C@H]2C(=O)N[C@H]3C(=O)N[C@H](C(=O)N[C@H](C(=O)O)c4cc(O)cc(O)c4-c4cc3ccc4O)[C@H](O[C@H]3C[C@](C)(N)[C@@H](O)[C@H](C)O3)c3ccc(c(Cl)c3)Oc3cc2cc(c3O[C@@H]2O[C@H](CO)[C@@H](O)[C@H](O)[C@H]2O[C@H]2C[C@](C)(NCc3ccc(-c4ccc(Cl)cc4)cc3)[C@@H](O)[C@H](C)O2)Oc2ccc(cc2Cl)[C@H]1O [Oritavancin] + CC1(C)S[C@@H]2[C@H](NC(=O)Cc3ccccc3)C(=O)N2[C@H]1C(=O)O [PenicillinG] | -0.066 | 0.0412 | 0.0356 | 0.0358 |  |  |  |  |
| CN[C@H](CC(C)C)C(=O)N[C@H]1C(=O)N[C@@H](CC(N)=O)C(=O)N[C@H]2C(=O)N[C@H]3C(=O)N[C@H](C(=O)N[C@H](C(=O)O)c4cc(O)cc(O)c4-c4cc3ccc4O)[C@H](O[C@H]3C[C@](C)(N)[C@@H](O)[C@H](C)O3)c3ccc(c(Cl)c3)Oc3cc2cc(c3O[C@@H]2O[C@H](CO)[C@@H](O)[C@H](O)[C@H]2O[C@H]2C[C@](C)(NCc3ccc(-c4ccc(Cl)cc4)cc3)[C@@H](O)[C@H](C)O2)Oc2ccc(cc2Cl)[C@H]1O [Oritavancin] + CC1=C\[C@@H](O)CC(=O)Cc2nc(co2)C(=O)N2CCC=C2C(=O)O[C@H](C(C)C)[C@H](C)/C=C/C(=O)NC\C=C\1 [Virginiamycin M1] | -0.0713 | 0.0739 | -0.0348 | -0.0178 |  |  |  |  |
| CN[C@H](CC(C)C)C(=O)N[C@H]1C(=O)N[C@@H](CC(N)=O)C(=O)N[C@H]2C(=O)N[C@H]3C(=O)N[C@H](C(=O)N[C@H](C(=O)O)c4cc(O)cc(O)c4-c4cc3ccc4O)[C@H](O[C@H]3C[C@](C)(N)[C@@H](O)[C@H](C)O3)c3ccc(c(Cl)c3)Oc3cc2cc(c3O[C@@H]2O[C@H](CO)[C@@H](O)[C@H](O)[C@H]2O[C@H]2C[C@](C)(NCc3ccc(-c4ccc(Cl)cc4)cc3)[C@@H](O)[C@H](C)O2)Oc2ccc(cc2Cl)[C@H]1O [Oritavancin] + CCCCCCCCCC(=O)N[C@@H]1[C@H]([C@@H]([C@H](O[C@H]1OC2=C3C=C4C=C2OC5=C(C=C(C=C5)[C@H]([C@H]6C(=O)N[C@@H](C7=C(C(=CC(=C7)O)OC8[C@H]([C@H]([C@@H]([C@H](O8)CO)O)O)O)C9=C(C=CC(=C9)[C@H](C(=O)N6)NC(=O)[C@@H]4NC(=O)[C@@H]1C2=CC(=CC(=C2)OC2=C(C=CC(=C2)[C@H](C(=O)N[C@H](CC2=CC(=C(O3)C=C2)Cl)C(=O)N1)N)O)O)O)C(=O)O)O[C@H]1[C@@H]([C@H]([C@@H]([C@H](O1)CO)O)O)NC(=O)C)Cl)CO)O)O [Teicoplanin] |  |  |  |  | -0.117 | 0.0813 | -0.0634 | -0.0407 |
| CN[C@H](CC(C)C)C(=O)N[C@H]1C(=O)N[C@@H](CC(N)=O)C(=O)N[C@H]2C(=O)N[C@H]3C(=O)N[C@H](C(=O)N[C@H](C(=O)O)c4cc(O)cc(O)c4-c4cc3ccc4O)[C@H](O[C@H]3C[C@](C)(N)[C@@H](O)[C@H](C)O3)c3ccc(c(Cl)c3)Oc3cc2cc(c3O[C@@H]2O[C@H](CO)[C@@H](O)[C@H](O)[C@H]2O[C@H]2C[C@](C)(NCc3ccc(-c4ccc(Cl)cc4)cc3)[C@@H](O)[C@H](C)O2)Oc2ccc(cc2Cl)[C@H]1O [Oritavancin] + CCN(CC)CCOC(=O)c1ccc(N)cc1 [Procaine] | -0.0513 | -0.0615 | -0.0785 | -0.0177 |  |  |  |  |
| CN[C@H](CC(C)C)C(=O)N[C@H]1C(=O)N[C@@H](CC(N)=O)C(=O)N[C@H]2C(=O)N[C@H]3C(=O)N[C@H](C(=O)N[C@H](C(=O)O)c4cc(O)cc(O)c4-c4cc3ccc4O)[C@H](O[C@H]3C[C@](C)(N)[C@@H](O)[C@H](C)O3)c3ccc(c(Cl)c3)Oc3cc2cc(c3O[C@@H]2O[C@H](CO)[C@@H](O)[C@H](O)[C@H]2O[C@H]2C[C@](C)(NCc3ccc(-c4ccc(Cl)cc4)cc3)[C@@H](O)[C@H](C)O2)Oc2ccc(cc2Cl)[C@H]1O [Oritavancin] + CC[C@H]1OC(=O)[C@H](C)C(=O)[C@H](C)[C@@H](O[C@@H]2O[C@H](C)C[C@H](N(C)C)[C@H]2O)[C@](C)(OC)C[C@@H](C)C(=O)[C@H](C)[C@H]2N(CCCCn3cnc(-c4cccnc4)c3)C(=O)O[C@]12C [Telithromycin] | -0.0486 | 0.0281 | -0.0333 | 0.0211 |  |  |  |  |
| CN[C@H](CC(C)C)C(=O)N[C@H]1C(=O)N[C@@H](CC(N)=O)C(=O)N[C@H]2C(=O)N[C@H]3C(=O)N[C@H](C(=O)N[C@H](C(=O)O)c4cc(O)cc(O)c4-c4cc3ccc4O)[C@H](O[C@H]3C[C@](C)(N)[C@@H](O)[C@H](C)O3)c3ccc(c(Cl)c3)Oc3cc2cc(c3O[C@@H]2O[C@H](CO)[C@@H](O)[C@H](O)[C@H]2O[C@H]2C[C@](C)(NCc3ccc(-c4ccc(Cl)cc4)cc3)[C@@H](O)[C@H](C)O2)Oc2ccc(cc2Cl)[C@H]1O [Oritavancin] + CN1C2=CC=CC=C2N=C3C1=CC=CC3=O [Pyocyanin] | -0.105 | -0.0208 | -0.047 | -0.0238 |  |  |  |  |
| CN[C@H](CC(C)C)C(=O)N[C@H]1C(=O)N[C@@H](CC(N)=O)C(=O)N[C@H]2C(=O)N[C@H]3C(=O)N[C@H](C(=O)N[C@H](C(=O)O)c4cc(O)cc(O)c4-c4cc3ccc4O)[C@H](O[C@H]3C[C@](C)(N)[C@@H](O)[C@H](C)O3)c3ccc(c(Cl)c3)Oc3cc2cc(c3O[C@@H]2O[C@H](CO)[C@@H](O)[C@H](O)[C@H]2O[C@H]2C[C@](C)(NCc3ccc(-c4ccc(Cl)cc4)cc3)[C@@H](O)[C@H](C)O2)Oc2ccc(cc2Cl)[C@H]1O [Oritavancin] + CN(C)c1cc(NC(=O)CNC(C)(C)C)c(O)c2c1C[C@H]1C[C@H]3[C@H](N(C)C)C(O)=C(C(N)=O)C(=O)[C@@]3(O)C(O)=C1C2=O [Tigecycline] | -0.0634 | 0.0458 | -0.0305 | -0.0328 |  |  |  |  |
| CN[C@H](CC(C)C)C(=O)N[C@H]1C(=O)N[C@@H](CC(N)=O)C(=O)N[C@H]2C(=O)N[C@H]3C(=O)N[C@H](C(=O)N[C@H](C(=O)O)c4cc(O)cc(O)c4-c4cc3ccc4O)[C@H](O[C@H]3C[C@](C)(N)[C@@H](O)[C@H](C)O3)c3ccc(c(Cl)c3)Oc3cc2cc(c3O[C@@H]2O[C@H](CO)[C@@H](O)[C@H](O)[C@H]2O[C@H]2C[C@](C)(NCc3ccc(-c4ccc(Cl)cc4)cc3)[C@@H](O)[C@H](C)O2)Oc2ccc(cc2Cl)[C@H]1O [Oritavancin] + CN(N=O)C(=O)N[C@@H](C=O)[C@@H](O)[C@H](O)[C@H](O)CO [Streptozotocin] | -0.063 | -0.0337 | -0.0564 | -0.0355 |  |  |  |  |
| CN[C@H](CC(C)C)C(=O)N[C@H]1C(=O)N[C@@H](CC(N)=O)C(=O)N[C@H]2C(=O)N[C@H]3C(=O)N[C@H](C(=O)N[C@H](C(=O)O)c4cc(O)cc(O)c4-c4cc3ccc4O)[C@H](O[C@H]3C[C@](C)(N)[C@@H](O)[C@H](C)O3)c3ccc(c(Cl)c3)Oc3cc2cc(c3O[C@@H]2O[C@H](CO)[C@@H](O)[C@H](O)[C@H]2O[C@H]2C[C@](C)(NCc3ccc(-c4ccc(Cl)cc4)cc3)[C@@H](O)[C@H](C)O2)Oc2ccc(cc2Cl)[C@H]1O [Oritavancin] + CN[C@@H]1[C@H](O)[C@H](NC)[C@H]2O[C@@]3(O)C(=O)C[C@@H](C)O[C@H]3O[C@@H]2[C@H]1O [Spectinomycin] | -0.154 | 0.0219 | -0.0487 | -0.0238 |  |  |  |  |
| CN[C@H](CC(C)C)C(=O)N[C@H]1C(=O)N[C@@H](CC(N)=O)C(=O)N[C@H]2C(=O)N[C@H]3C(=O)N[C@H](C(=O)N[C@H](C(=O)O)c4cc(O)cc(O)c4-c4cc3ccc4O)[C@H](O[C@H]3C[C@](C)(N)[C@@H](O)[C@H](C)O3)c3ccc(c(Cl)c3)Oc3cc2cc(c3O[C@@H]2O[C@H](CO)[C@@H](O)[C@H](O)[C@H]2O[C@H]2C[C@](C)(NCc3ccc(-c4ccc(Cl)cc4)cc3)[C@@H](O)[C@H](C)O2)Oc2ccc(cc2Cl)[C@H]1O [Oritavancin] + CN[C@@H]1[C@H](O[C@H]2[C@H](O[C@H]3[C@H](O)[C@@H](O)[C@H](N=C(N)N)[C@@H](O)[C@@H]3N=C(N)N)O[C@@H](C)[C@]2(O)C=O)O[C@@H](CO)[C@H](O)[C@H]1O [Streptomycin] | -0.138 | 0.0462 | -0.111 | -0.0219 |  |  |  |  |
